Test results reported in patent US20170209385A1, “ETHYLCELLULOSE DISPERSION AND FILM” (Dow Global Technologies LLC, priority 2014, published 2017).
Counter-ions that a name gives are not always drawn. Like-named read-outs stand apart in the source and are kept apart here.

Columns and labels:
[1] = Screening: visual/manual check whether a coalesced film formed; type: physicochemical
[2] = 25° C.; cited from earlier work
[3] = unitless; cited from earlier work
[4] = ethylcellulose dispersion plus additive, intact on and after removal from substrate

Compound | Film? Did the sample form a coalesced film? (yes or no) [1, 4] | Film? Did the sample form a coalesced film? (yes or no) [1] | W. Sol. solubility in water [2] [mg/mL] | logP logarithm of the water-octanol partition coefficient [3]
OCCOc1ccccc1 [2-phenoxy ethanol, 2-Phenoxyethanol] | – | yes | 30 | –
CC(C)(C)CC(C)(C)c1ccc(OCCOCC[N+](C)(C)Cc2ccccc2)cc1 [benzethonium chloride] | – | no | – | –
OCc1ccccc1 [benzyl alcohol] | yes | – | 42.9 | –
O=C(OCc1ccccc1)c1ccccc1 [benzyl benzoate] | yes | – | – | 3.81
CC[N+](CC)(CC(=O)Nc1c(C)cccc1C)Cc1ccccc1 [denatonium benzoate] | no | – | – | −0.088
CCCCOC(=O)CCCCCCCCC(=O)OCCCC [dibutyl sebacate] | yes | – | – | 5.958
CCOC(=O)c1ccccc1C(=O)OCC [diethyl phthalate] | yes | – | – | –
COC(=O)c1ccccc1C(=O)OC [dimethyl phthalate] | – | yes | – | –
OCC(O)CO [glycerol] | no | – | 500 | −1.85
OC[C@@H](O)[C@@H](O[C@H]1O[C@H](CO)[C@@H](O)[C@H](O)[C@H]1O)[C@H](O)[C@@H](O)CO [maltitol] | no | – | – | –
OC[C@@H](O)[C@@H](O)[C@H](O)[C@H](O)CO [mannitol] | no | – | 182 | −3.62
CCCCCCCCCCCCCCCCCC(=O)O [stearic acid] | yes | – | – | –
CC(=O)OCC(COC(C)=O)OC(C)=O [triacetin] | yes | – | 1.16 | 0.216
OC[C@@H](O)[C@H](O)[C@@H](O)CO [xylitol] | no | – | 1500 | −2.65

Now from value to compound, other results behind:

Film? Did the sample form a coalesced film? (yes or no) [1, 4] | Compound | Film? Did the sample form a coalesced film? (yes or no) [1] | W. Sol. solubility in water [2] [mg/mL] | logP logarithm of the water-octanol partition coefficient [3]
no | OCCNCCO [diethanolamine] | – | – | −1.761
yes | CCCCC/C=C\C/C=C\CCCCCCCC(=O)O [linoleic acid] | – | – | –
yes | CCCCCCCC/C=C\CCCCCCCC(=O)O [oleic acid] | – | – | –
yes | CCCCCCCC/C=C\CCCCCCCCO [oleyl alcohol] | – | – | 7.562
yes | OCCc1ccccc1 [phenylethyl alcohol] | – | 20 | –
yes | CCCOC(=O)c1cc(O)c(O)c(O)c1 [propyl gallate] | – | – | 1.779
yes | CC(O)CO (stereo not drawn) [propylene glycol] | – | – | −1.008
no | OC[C@@H](O)[C@@H](O)[C@H](O)[C@@H](O)CO [sorbitol] | – | 182 | −3.262
no | O=C(O)CCC(=O)O [succinic acid] | – | – | −0.933
yes | CCCCOC(=O)CC(O)(CC(=O)OCCCC)C(=O)OCCCC [tributyl citrate] | – | – | 4.324
yes | CCOC(=O)CC(O)(CC(=O)OCC)C(=O)OCC [triethyl citrate] | – | – | 1.267
